Measurements: ChEMBL document CHEMBL1201861, “Genomics of Drug Sensitity in Cancer screening data, Wellcome Trust Sanger Institute”
pIC50: −log10 of the molar value.

The compounds below were run on NCI-H2405 (assay: cells). Conditions: Homo sapiens, NCI-H2405.
Format: functional, cell-based, Homo sapiens
Description: SANGER: Inhibition of human NCI-H2405 cell growth in a cell viability assay.

Structure (SMILES) | pIC50
Nc1cccc2c1CN(C1CCC(=O)NC1=O)C2=O (stereo not drawn) [LENALIDOMIDE] | < 5.30

What follows are compounds tested on NCI-H1703 (assay: cells). Conditions: Homo sapiens, NCI-H1703.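 Further: growth inhibition of NCI-H1703 cells, read out via a cell viability assay.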
Format: functional, cell-based, Homo sapiens
Description: SANGER: Inhibition of human NCI-H1703 cell growth in a cell viability assay.

Structure (SMILES) | pIC50
Nc1cccc2c1CN(C1CCC(=O)NC1=O)C2=O (stereo not drawn) [LENALIDOMIDE] | < 5.30

What follows are compounds tested on KYSE-150 cell line (assay: cells). Conditions: Homo sapiens, KYSE-150.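 Further: growth inhibition of human KYSE-150 cells, read out with a cell viability assay.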
Format: functional, cell-based, Homo sapiens
Description: SANGER: Inhibition of human KYSE-150 cell growth in a cell viability assay.

Structure (SMILES) | pIC50
Nc1cccc2c1CN(C1CCC(=O)NC1=O)C2=O (stereo not drawn) [LENALIDOMIDE] | < 5.30

The compounds below were run on ZR-75-30 (assay: cells). Conditions: Homo sapiens, ZR-75-30.
Format: functional, cell-based, Homo sapiens
Description: SANGER: Inhibition of human ZR-75-30 cell growth in a cell viability assay.

Structure (SMILES) | pIC50
Nc1cccc2c1CN(C1CCC(=O)NC1=O)C2=O (stereo not drawn) [LENALIDOMIDE] | < 5.30

These compounds were tested on SAOS-2 (assay: cells). Conditions: Homo sapiens, SAOS-2.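 Further: growth inhibition of human Saos-2 cells determined by a cell viability assay.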
Format: functional, cell-based, Homo sapiens
Description: SANGER: Inhibition of human Saos-2 cell growth in a cell viability assay.

Structure (SMILES) | pIC50
Nc1cccc2c1CN(C1CCC(=O)NC1=O)C2=O (stereo not drawn) [LENALIDOMIDE] | < 5.30

Each compound was assayed on RD (assay: cells). Conditions: Homo sapiens, RD.
Format: functional, cell-based, Homo sapiens
Description: SANGER: Inhibition of human RD cell growth in a cell viability assay.

Structure (SMILES) | pIC50
Nc1cccc2c1CN(C1CCC(=O)NC1=O)C2=O (stereo not drawn) [LENALIDOMIDE] | < 5.30

Each compound was assayed on HMV-2 cell line (assay: cells). Conditions: Homo sapiens, HMV-2.
Format: functional, cell-based, Homo sapiens
Description: SANGER: Inhibition of human HMV-II cell growth in a cell viability assay.

Structure (SMILES) | pIC50
Nc1cccc2c1CN(C1CCC(=O)NC1=O)C2=O (stereo not drawn) [LENALIDOMIDE] | < 5.30

What follows are compounds tested on SCC-4 (assay: cells). Conditions: Homo sapiens, SCC-4.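 Further: growth inhibition of human SCC-4 cells, read out as cell viability.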
Format: functional, cell-based, Homo sapiens
Description: SANGER: Inhibition of human SCC-4 cell growth in a cell viability assay.

Structure (SMILES) | pIC50
Nc1cccc2c1CN(C1CCC(=O)NC1=O)C2=O (stereo not drawn) [LENALIDOMIDE] | < 5.30

The compounds below were run on KP-N-YN (assay: cells). Conditions: Homo sapiens, KP-N-YN.
Format: functional, cell-based, Homo sapiens
Description: SANGER: Inhibition of human KP-N-YN cell growth in a cell viability assay.

Structure (SMILES) | pIC50
Nc1cccc2c1CN(C1CCC(=O)NC1=O)C2=O (stereo not drawn) [LENALIDOMIDE] | < 5.30

These compounds were tested on SW1417 (assay: cells). Conditions: Homo sapiens, SW1417.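 Further: growth inhibition of human SW1417 cells, read out with a cell viability assay.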
Format: functional, cell-based, Homo sapiens
Description: SANGER: Inhibition of human SW1417 cell growth in a cell viability assay.

Structure (SMILES) | pIC50
Nc1cccc2c1CN(C1CCC(=O)NC1=O)C2=O (stereo not drawn) [LENALIDOMIDE] | < 5.30

The compounds below were run on IGR-1 (assay: cells). Conditions: Homo sapiens, IGR-1.
Format: functional, cell-based, Homo sapiens
Description: SANGER: Inhibition of human IGR-1 cell growth in a cell viability assay.

Structure (SMILES) | pIC50
Nc1cccc2c1CN(C1CCC(=O)NC1=O)C2=O (stereo not drawn) [LENALIDOMIDE] | < 5.30

Each compound was assayed on Detroit 562 (assay: cells). Conditions: Homo sapiens, Detroit 562.
Format: functional, cell-based, Homo sapiens
Description: SANGER: Inhibition of human Detroit562 cell growth in a cell viability assay.

Structure (SMILES) | pIC50
Nc1cccc2c1CN(C1CCC(=O)NC1=O)C2=O (stereo not drawn) [LENALIDOMIDE] | < 5.30

These compounds were tested on NCI-H2452 (assay: cells). Conditions: Homo sapiens, NCI-H2452.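 Further: growth inhibition of NCI-H2452 cells, read out with a cell viability assay.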
Format: functional, cell-based, Homo sapiens
Description: SANGER: Inhibition of human NCI-H2452 cell growth in a cell viability assay.

Structure (SMILES) | pIC50
Nc1cccc2c1CN(C1CCC(=O)NC1=O)C2=O (stereo not drawn) [LENALIDOMIDE] | < 5.30

Each compound was assayed on CAKI-1 (assay: cells). Conditions: Homo sapiens, CAKI-1.
Format: functional, cell-based, Homo sapiens
Description: SANGER: Inhibition of human CAKI-1 cell growth in a cell viability assay.

Structure (SMILES) | pIC50
Nc1cccc2c1CN(C1CCC(=O)NC1=O)C2=O (stereo not drawn) [LENALIDOMIDE] | < 5.30

These compounds were tested on RCM-1 (assay: cells). Conditions: Homo sapiens, RCM-1.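 Further: growth inhibition of the RCM-1 line, determined with a cell viability readout.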
Format: functional, cell-based, Homo sapiens
Description: SANGER: Inhibition of human RCM-1 cell growth in a cell viability assay.

Structure (SMILES) | pIC50
Nc1cccc2c1CN(C1CCC(=O)NC1=O)C2=O (stereo not drawn) [LENALIDOMIDE] | < 5.30

The compounds below were run on KNS-62 (assay: cells). Conditions: Homo sapiens, KNS-62.
Format: functional, cell-based, Homo sapiens
Description: SANGER: Inhibition of human KNS-62 cell growth in a cell viability assay.

Structure (SMILES) | pIC50
Nc1cccc2c1CN(C1CCC(=O)NC1=O)C2=O (stereo not drawn) [LENALIDOMIDE] | < 5.30

Each compound was assayed on Ca-Ski (assay: cells). Conditions: Homo sapiens, Ca-Ski.
Format: functional, cell-based, Homo sapiens
Description: SANGER: Inhibition of human Ca-Ski cell growth in a cell viability assay.

Structure (SMILES) | pIC50
Nc1cccc2c1CN(C1CCC(=O)NC1=O)C2=O (stereo not drawn) [LENALIDOMIDE] | < 5.30

What follows are compounds tested on HOP-92 (assay: cells). Conditions: Homo sapiens, HOP-92.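 Further: cell viability readout, with IC50 reflecting inhibition of HOP-92 cell growth.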
Format: functional, cell-based, Homo sapiens
Description: SANGER: Inhibition of human HOP-92 cell growth in a cell viability assay.

Structure (SMILES) | pIC50
Nc1cccc2c1CN(C1CCC(=O)NC1=O)C2=O (stereo not drawn) [LENALIDOMIDE] | < 5.30

Each compound was assayed on NCI-H2170 (assay: cells). Conditions: Homo sapiens, NCI-H2170.
Format: functional, cell-based, Homo sapiens
Description: SANGER: Inhibition of human NCI-H2170 cell growth in a cell viability assay.

Structure (SMILES) | pIC50
Nc1cccc2c1CN(C1CCC(=O)NC1=O)C2=O (stereo not drawn) [LENALIDOMIDE] | < 5.30

The compounds below were run on SW-620 (assay: cells). Conditions: Homo sapiens, SW-620.
Format: functional, cell-based, Homo sapiens
Description: SANGER: Inhibition of human SW620 cell growth in a cell viability assay.

Structure (SMILES) | pIC50
Nc1cccc2c1CN(C1CCC(=O)NC1=O)C2=O (stereo not drawn) [LENALIDOMIDE] | < 5.30

Each compound was assayed on NY (assay: cells). Conditions: Homo sapiens, NY.
Format: functional, cell-based, Homo sapiens
Description: SANGER: Inhibition of human NY cell growth in a cell viability assay.

Structure (SMILES) | pIC50
Nc1cccc2c1CN(C1CCC(=O)NC1=O)C2=O (stereo not drawn) [LENALIDOMIDE] | < 5.30

What follows are compounds tested on MEL-JUSO (assay: cells). Conditions: Homo sapiens, MEL-JUSO.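 Further: growth inhibition of human MEL-JUSO cells, read out with a cell viability assay.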
Format: functional, cell-based, Homo sapiens
Description: SANGER: Inhibition of human MEL-JUSO cell growth in a cell viability assay.

Structure (SMILES) | pIC50
Nc1cccc2c1CN(C1CCC(=O)NC1=O)C2=O (stereo not drawn) [LENALIDOMIDE] | < 5.30

Each compound was assayed on BPH-1 (assay: cells). Conditions: Homo sapiens, BPH-1.
Format: functional, cell-based, Homo sapiens
Description: SANGER: Inhibition of human BPH-1 cell growth in a cell viability assay.

Structure (SMILES) | pIC50
Nc1cccc2c1CN(C1CCC(=O)NC1=O)C2=O (stereo not drawn) [LENALIDOMIDE] | < 5.30

Each compound was assayed on NCI-H2030 (assay: cells). Conditions: Homo sapiens, NCI-H2030.
Format: functional, cell-based, Homo sapiens
Description: SANGER: Inhibition of human NCI-H2030 cell growth in a cell viability assay.

Structure (SMILES) | pIC50
Nc1cccc2c1CN(C1CCC(=O)NC1=O)C2=O (stereo not drawn) [LENALIDOMIDE] | < 5.30

The compounds below were run on EFO-21 (assay: cells). Conditions: Homo sapiens, EFO-21.
Format: functional, cell-based, Homo sapiens
Description: SANGER: Inhibition of human EFO-21 cell growth in a cell viability assay.

Structure (SMILES) | pIC50
Nc1cccc2c1CN(C1CCC(=O)NC1=O)C2=O (stereo not drawn) [LENALIDOMIDE] | < 5.30

What follows are compounds tested on SW13 (assay: cells). Conditions: Homo sapiens, SW13.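 Further: IC50 is inhibition of SW13 cell growth, read out with a cell viability assay.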
Format: functional, cell-based, Homo sapiens
Description: SANGER: Inhibition of human SW13 cell growth in a cell viability assay.

Structure (SMILES) | pIC50
Nc1cccc2c1CN(C1CCC(=O)NC1=O)C2=O (stereo not drawn) [LENALIDOMIDE] | < 5.30

The compounds below were run on NCI-H460 (assay: cells). Conditions: Homo sapiens, NCI-H460.
Format: functional, cell-based, Homo sapiens
Description: SANGER: Inhibition of human NCI-H460 cell growth in a cell viability assay.

Structure (SMILES) | pIC50
Nc1cccc2c1CN(C1CCC(=O)NC1=O)C2=O (stereo not drawn) [LENALIDOMIDE] | < 5.30

The compounds below were run on NCI-H727 (assay: cells). Conditions: Homo sapiens, NCI-H727.
Format: functional, cell-based, Homo sapiens
Description: SANGER: Inhibition of human NCI-H727 cell growth in a cell viability assay.

Structure (SMILES) | pIC50
Nc1cccc2c1CN(C1CCC(=O)NC1=O)C2=O (stereo not drawn) [LENALIDOMIDE] | < 5.30

These compounds were tested on HT1197 (assay: cells). Conditions: Homo sapiens, HT1197.
Format: functional, cell-based, Homo sapiens, HT-1197
Description: SANGER: Inhibition of human HT-1197 cell growth in a cell viability assay.

Structure (SMILES) | pIC50
Nc1cccc2c1CN(C1CCC(=O)NC1=O)C2=O (stereo not drawn) [LENALIDOMIDE] | < 5.30

These compounds were tested on SCC-9 (assay: cells). Conditions: Homo sapiens, SCC-9.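 Further: Read-out is a cell viability assay, with values giving inhibition of cell growth.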
Format: functional, cell-based, Homo sapiens
Description: SANGER: Inhibition of human SCC-9 cell growth in a cell viability assay.

Structure (SMILES) | pIC50
Nc1cccc2c1CN(C1CCC(=O)NC1=O)C2=O (stereo not drawn) [LENALIDOMIDE] | < 5.30

Each compound was assayed on C3A (assay: cells). Conditions: Homo sapiens, C3A.
Format: functional, cell-based, Homo sapiens
Description: SANGER: Inhibition of human C3A cell growth in a cell viability assay.

Structure (SMILES) | pIC50
Nc1cccc2c1CN(C1CCC(=O)NC1=O)C2=O (stereo not drawn) [LENALIDOMIDE] | < 5.30

Each compound was assayed on HCC1954 (assay: cells). Conditions: Homo sapiens, HCC1954.
Format: functional, cell-based, Homo sapiens
Description: SANGER: Inhibition of human HCC1954 cell growth in a cell viability assay.

Structure (SMILES) | pIC50
Nc1cccc2c1CN(C1CCC(=O)NC1=O)C2=O (stereo not drawn) [LENALIDOMIDE] | < 5.30

Each compound was assayed on ACHN (assay: cells). Conditions: Homo sapiens, ACHN.
Format: functional, cell-based, Homo sapiens
Description: SANGER: Inhibition of human ACHN cell growth in a cell viability assay.

Structure (SMILES) | pIC50
Nc1cccc2c1CN(C1CCC(=O)NC1=O)C2=O (stereo not drawn) [LENALIDOMIDE] | < 5.30

What follows are compounds tested on BHT-101 (assay: cells). Conditions: Homo sapiens, BHT-101.
Format: functional, cell-based, Homo sapiens
Description: SANGER: Inhibition of human BHT-101 cell growth in a cell viability assay.

Structure (SMILES) | pIC50
Nc1cccc2c1CN(C1CCC(=O)NC1=O)C2=O (stereo not drawn) [LENALIDOMIDE] | < 5.30

The compounds below were run on MKN-7 (assay: cells). Conditions: Homo sapiens, MKN-7.
Format: functional, cell-based, Homo sapiens
Description: SANGER: Inhibition of human MKN7 cell growth in a cell viability assay.

Structure (SMILES) | pIC50
Nc1cccc2c1CN(C1CCC(=O)NC1=O)C2=O (stereo not drawn) [LENALIDOMIDE] | < 5.30

What follows are compounds tested on RERF-LC-MS (assay: cells). Conditions: Homo sapiens, RERF-LC-MS.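 Further: growth inhibition of human RERF-LC-MS cells, read out by a cell viability assay.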
Format: functional, cell-based, Homo sapiens
Description: SANGER: Inhibition of human RERF-LC-MS cell growth in a cell viability assay.

Structure (SMILES) | pIC50
Nc1cccc2c1CN(C1CCC(=O)NC1=O)C2=O (stereo not drawn) [LENALIDOMIDE] | < 5.30

These compounds were tested on MDA-MB-415 (assay: cells). Conditions: Homo sapiens, MDA-MB-415.
Format: functional, cell-based, Homo sapiens

Structure (SMILES) | pIC50
Nc1cccc2c1CN(C1CCC(=O)NC1=O)C2=O (stereo not drawn) [LENALIDOMIDE] | < 5.30

These compounds were tested on OAW-28 (assay: cells). Conditions: Homo sapiens, OAW-28.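 Further: growth inhibition of OAW-28 cells, read out with a cell viability assay.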
Format: functional, cell-based, Homo sapiens
Description: SANGER: Inhibition of human OAW-28 cell growth in a cell viability assay.

Structure (SMILES) | pIC50
Nc1cccc2c1CN(C1CCC(=O)NC1=O)C2=O (stereo not drawn) [LENALIDOMIDE] | < 5.30
